According to PubChem BioAssay (NCI):
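All cell lines were grown in 96-well plates and treated with compound for 48 hours. The concentration for full growth arrest is given as TGI.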

Legend:
Assay in all cases: NCI anticancer screen, dose series, 48 h
HCT-15 colon = system: HCT-15 colon
U251 CNS = system: U251 CNS
HL-60(TB) leukemia = system: HL-60(TB) leukemia
SF-295 CNS = system: SF-295 CNS
SF-539 CNS = system: SF-539 CNS
786-0 renal = system: 786-0 renal
NCI-H226 lung = system: NCI-H226 lung
SF-268 CNS = system: SF-268 CNS
OVCAR-3 ovarian = system: OVCAR-3 ovarian
OVCAR-4 ovarian = system: OVCAR-4 ovarian
UO-31 renal = system: UO-31 renal
DMS 273 small cell lung = system: DMS 273 small cell lung
K-562 leukemia = system: K-562 leukemia
DLD-1 colon = system: DLD-1 colon
COLO 205 colon = system: COLO 205 colon
DMS 114 small cell lung = system: DMS 114 small cell lung
SK-MEL-28 melanoma = system: SK-MEL-28 melanoma
HOP-18 NSCLC = system: HOP-18 NSCLC
NCI-H23 lung = system: NCI-H23 lung
MOLT-4 leukemia = system: MOLT-4 leukemia
SK-OV-3 ovarian = system: SK-OV-3 ovarian
A549 NSCLC = system: A549 NSCLC
SNB-19 CNS = system: SNB-19 CNS
IGROV1 ovarian = system: IGROV1 ovarian
SN12C renal = system: SN12C renal
KM12 colon = system: KM12 colon
LXFL 529 NSCLC = system: LXFL 529 NSCLC
HOP-92 NSCLC = system: HOP-92 NSCLC
NCI-H460 lung = system: NCI-H460 lung
OVCAR-8 ovarian = system: OVCAR-8 ovarian
M14 melanoma = system: M14 melanoma
ACHN renal = system: ACHN renal
SNB-78 CNS = system: SNB-78 CNS
MALME-3M melanoma = system: MALME-3M melanoma
UACC-257 melanoma = system: UACC-257 melanoma
KM20L2 colon = system: KM20L2 colon
TK-10 renal = system: TK-10 renal
UACC-62 melanoma = system: UACC-62 melanoma
HOP-62 NSCLC = system: HOP-62 NSCLC
SW-620 colon = system: SW-620 colon
RXF 393 renal = system: RXF 393 renal
RPMI-8226 leukemia = system: RPMI-8226 leukemia
LOX IMVI melanoma = system: LOX IMVI melanoma
HT29 colon = system: HT29 colon
SK-MEL-2 melanoma = system: SK-MEL-2 melanoma
CCRF-CEM leukemia = system: CCRF-CEM leukemia
OVCAR-5 ovarian = system: OVCAR-5 ovarian
SK-MEL-5 melanoma = system: SK-MEL-5 melanoma
CAKI-1 renal = system: CAKI-1 renal
NCI-H522 lung = system: NCI-H522 lung
HCT-116 colon = system: HCT-116 colon
M19-MEL melanoma = system: M19-MEL melanoma
SNB-75 CNS = system: SNB-75 CNS
SR leukemia = system: SR leukemia
HCC-2998 colon = system: HCC-2998 colon
EKVX NSCLC = system: EKVX NSCLC
XF 498 CNS = system: XF 498 CNS
A498 renal = system: A498 renal

## O=C(c1ccc(Cl)cc1)N(C(=S)N1CCN(c2ccccc2)CC1)C1CCCCC1
HCT-15 colon
  TGI: > 100 µM
U251 CNS
  TGI: > 100 µM
HL-60(TB) leukemia
  TGI: > 100 µM
SF-295 CNS
  TGI: > 100 µM
SF-539 CNS
  TGI: > 100 µM
786-0 renal
  TGI: > 100 µM
NCI-H226 lung
  TGI: 20.8 µM
SF-268 CNS
  TGI: > 100 µM
OVCAR-3 ovarian
  TGI: > 100 µM
OVCAR-4 ovarian
  TGI: > 100 µM
UO-31 renal
  TGI: > 100 µM
DMS 273 small cell lung
  TGI: > 100 µM
K-562 leukemia
  TGI: > 100 µM
DLD-1 colon
  TGI: > 100 µM
COLO 205 colon
  TGI: > 100 µM
DMS 114 small cell lung
  TGI: > 100 µM
SK-MEL-28 melanoma
  TGI: > 100 µM
HOP-18 NSCLC
  TGI: > 100 µM
NCI-H23 lung
  TGI: > 100 µM
MOLT-4 leukemia
  TGI: > 100 µM
SK-OV-3 ovarian
  TGI: > 100 µM
A549 NSCLC
  TGI: > 100 µM
SNB-19 CNS
  TGI: > 100 µM
IGROV1 ovarian
  TGI: > 100 µM
SN12C renal
  TGI: > 100 µM
KM12 colon
  TGI: > 100 µM
LXFL 529 NSCLC
  TGI: > 100 µM
HOP-92 NSCLC
  TGI: > 100 µM
NCI-H460 lung
  TGI: > 100 µM
OVCAR-8 ovarian
  TGI: > 100 µM
M14 melanoma
  TGI: > 100 µM
ACHN renal
  TGI: > 100 µM
SNB-78 CNS
  TGI: > 100 µM
MALME-3M melanoma
  TGI: > 100 µM
UACC-257 melanoma
  TGI: > 100 µM
KM20L2 colon
  TGI: > 100 µM
TK-10 renal
  TGI: > 100 µM
UACC-62 melanoma
  TGI: > 100 µM
HOP-62 NSCLC
  TGI: > 100 µM
SW-620 colon
  TGI: > 100 µM
RXF 393 renal
  TGI: > 100 µM
RPMI-8226 leukemia
  TGI: > 100 µM
LOX IMVI melanoma
  TGI: > 100 µM
HT29 colon
  TGI: > 100 µM
SK-MEL-2 melanoma
  TGI: > 100 µM
CCRF-CEM leukemia
  TGI: > 100 µM
OVCAR-5 ovarian
  TGI: > 100 µM
SK-MEL-5 melanoma
  TGI: > 100 µM
CAKI-1 renal
  TGI: > 100 µM
NCI-H522 lung
  TGI: > 100 µM
HCT-116 colon
  TGI: > 100 µM
M19-MEL melanoma
  TGI: > 100 µM
SNB-75 CNS
  TGI: > 100 µM
SR leukemia
  TGI: > 100 µM

## COc1cc(C=C2C(=O)OC(C)(C)OC2=O)cc(OC)c1OC
HCT-15 colon
  TGI: > 100 µM
U251 CNS
  TGI: > 100 µM
HL-60(TB) leukemia
  TGI: > 100 µM
SF-295 CNS
  TGI: > 100 µM
SF-539 CNS
  TGI: > 100 µM
786-0 renal
  TGI: > 100 µM
NCI-H226 lung
  TGI: > 100 µM
SF-268 CNS
  TGI: > 100 µM
OVCAR-3 ovarian
  TGI: > 100 µM
OVCAR-4 ovarian
  TGI: > 100 µM
UO-31 renal
  TGI: > 100 µM
DMS 273 small cell lung
  TGI: > 100 µM
K-562 leukemia
  TGI: > 100 µM
DLD-1 colon
  TGI: > 100 µM
COLO 205 colon
  TGI: > 100 µM
DMS 114 small cell lung
  TGI: > 100 µM
SK-MEL-28 melanoma
  TGI: > 100 µM
HOP-18 NSCLC
  TGI: > 100 µM
NCI-H23 lung
  TGI: > 100 µM
MOLT-4 leukemia
  TGI: > 100 µM
SK-OV-3 ovarian
  TGI: > 100 µM
A549 NSCLC
  TGI: > 100 µM
SNB-19 CNS
  TGI: > 100 µM
SN12C renal
  TGI: > 100 µM
KM12 colon
  TGI: > 100 µM
LXFL 529 NSCLC
  TGI: > 100 µM
HCC-2998 colon
  TGI: > 100 µM
HOP-92 NSCLC
  TGI: > 100 µM
NCI-H460 lung
  TGI: > 100 µM
OVCAR-8 ovarian
  TGI: > 100 µM
M14 melanoma
  TGI: > 100 µM
ACHN renal
  TGI: > 100 µM
SNB-78 CNS
  TGI: > 100 µM
MALME-3M melanoma
  TGI: > 100 µM
UACC-257 melanoma
  TGI: > 100 µM
KM20L2 colon
  TGI: > 100 µM
TK-10 renal
  TGI: > 100 µM
UACC-62 melanoma
  TGI: > 100 µM
EKVX NSCLC
  TGI: > 100 µM
SW-620 colon
  TGI: > 100 µM
RXF 393 renal
  TGI: > 100 µM
RPMI-8226 leukemia
  TGI: > 100 µM
LOX IMVI melanoma
  TGI: > 100 µM
HT29 colon
  TGI: > 100 µM
SK-MEL-2 melanoma
  TGI: > 100 µM
CCRF-CEM leukemia
  TGI: > 100 µM
OVCAR-5 ovarian
  TGI: > 100 µM
SK-MEL-5 melanoma
  TGI: > 100 µM
CAKI-1 renal
  TGI: > 100 µM
NCI-H522 lung
  TGI: > 100 µM
HCT-116 colon
  TGI: > 100 µM
M19-MEL melanoma
  TGI: > 100 µM
SR leukemia
  TGI: > 100 µM

## c1ccc(C[P+]2(c3ccccc3)CCCCC2)cc1
HCT-15 colon
  TGI: > 100 µM
U251 CNS
  TGI: > 100 µM
HL-60(TB) leukemia
  TGI: > 100 µM
SF-295 CNS
  TGI: > 100 µM
SF-539 CNS
  TGI: > 100 µM
786-0 renal
  TGI: > 100 µM
NCI-H226 lung
  TGI: > 100 µM
OVCAR-3 ovarian
  TGI: > 100 µM
OVCAR-4 ovarian
  TGI: > 100 µM
UO-31 renal
  TGI: > 100 µM
DMS 273 small cell lung
  TGI: > 100 µM
K-562 leukemia
  TGI: > 100 µM
DLD-1 colon
  TGI: > 100 µM
COLO 205 colon
  TGI: > 100 µM
DMS 114 small cell lung
  TGI: > 100 µM
SK-MEL-28 melanoma
  TGI: > 100 µM
XF 498 CNS
  TGI: 98.2 µM
HOP-18 NSCLC
  TGI: > 100 µM
NCI-H23 lung
  TGI: > 100 µM
MOLT-4 leukemia
  TGI: > 100 µM
SK-OV-3 ovarian
  TGI: > 100 µM
A549 NSCLC
  TGI: > 100 µM
SNB-19 CNS
  TGI: > 100 µM
IGROV1 ovarian
  TGI: > 100 µM
SN12C renal
  TGI: > 100 µM
KM12 colon
  TGI: > 100 µM
LXFL 529 NSCLC
  TGI: > 100 µM
HCC-2998 colon
  TGI: > 100 µM
NCI-H460 lung
  TGI: > 100 µM
OVCAR-8 ovarian
  TGI: > 100 µM
M14 melanoma
  TGI: > 100 µM
ACHN renal
  TGI: > 100 µM
SNB-78 CNS
  TGI: > 100 µM
MALME-3M melanoma
  TGI: > 100 µM
UACC-257 melanoma
  TGI: > 100 µM
KM20L2 colon
  TGI: > 100 µM
TK-10 renal
  TGI: > 100 µM
UACC-62 melanoma
  TGI: > 100 µM
A498 renal
  TGI: > 100 µM
HOP-62 NSCLC
  TGI: > 100 µM
EKVX NSCLC
  TGI: > 100 µM
SW-620 colon
  TGI: > 100 µM
RXF 393 renal
  TGI: > 100 µM
RPMI-8226 leukemia
  TGI: > 100 µM
LOX IMVI melanoma
  TGI: > 100 µM
HT29 colon
  TGI: > 100 µM
SK-MEL-2 melanoma
  TGI: > 100 µM
CCRF-CEM leukemia
  TGI: > 100 µM
OVCAR-5 ovarian
  TGI: > 100 µM
SK-MEL-5 melanoma
  TGI: 71.9 µM
NCI-H522 lung
  TGI: > 100 µM
HCT-116 colon
  TGI: > 100 µM
M19-MEL melanoma
  TGI: > 100 µM
SNB-75 CNS
  TGI: > 100 µM
SR leukemia
  TGI: > 100 µM
